Reference: patent US20100310685A1, “PUPICIDAL AND LARVICIDAL COMPOSITION” (priority 2008, published 2010)

Tested on: pupae of Nematocera Diptera (for example mosquitoes)
Assay: specific research on pupicidal action
Details: in vivo

## CCCCCCCCCCCCCCCCO [cetyl alcohol, 1-hexadecanol]
  pupicidal action (kills pupae): excellent pupicide
